According to PubChem BioAssay AID270 (DTP/NCI, 2004):
Several values for one entry are separate records, joined by “and”; a condition that tells them apart may be missing. Equal entries are not always repeated. Inconclusive results are not listed.

Tested on: BDF1 mice, s.c. Lewis lung carcinoma, T/C %
Assay: NCI In Vivo Anticancer Drug Screen. Data for tumor model Lewis Lung Carcinoma (subcutaneous) in B6D2F1 (BDF1) mice
Summary of the method: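 Antitumor effect in vivo is scored from survival or tumor burden, reported as treated relative to vehicle controls.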

[1] = endpoint: mean tumor weight, dose: 15.0 mg/kg/injection, schedule: Q01DX011 (ip), vehicle: saline, higher = larger tumour
[2] = endpoint: median survival time, dose: 50.0 mg/kg/injection, schedule: Q01DX009 (ip), vehicle: saline, higher = longer survival
[3] = endpoint: median survival time, dose: 100.0 mg/kg/injection, schedule: Q01DX009 (ip), vehicle: saline, higher = longer survival
[4] = endpoint: median survival time, dose: 200.0 mg/kg/injection, schedule: Q01DX009 (ip), vehicle: saline, higher = longer survival
[5] = endpoint: mean tumor weight, dose: 6.25 mg/kg/injection, schedule: Q01DX011 (ip), vehicle: saline, higher = larger tumour
[6] = endpoint: mean tumor weight, dose: 12.5 mg/kg/injection, schedule: Q01DX011 (ip), vehicle: saline, higher = larger tumour
[7] = endpoint: mean tumor weight, dose: 50.0 mg/kg/injection, schedule: Q01DX011 (ip), vehicle: saline, higher = larger tumour
[8] = endpoint: median survival time, dose: 12.5 mg/kg/injection, schedule: Q01DX009 (ip), vehicle: saline with Tween-80, higher = longer survival

## C[N+](C)(C)c1ncnc2nc[nH]c12
[1]
  T/C: 87 % of control
endpoint: mean tumor weight, dose: 30.0 mg/kg/injection, schedule: Q01DX011 (ip), vehicle: saline, higher = larger tumour
  T/C: 100 % of control
endpoint: mean tumor weight, dose: 60.0 mg/kg/injection, schedule: Q01DX011 (ip), vehicle: saline, higher = larger tumour
  T/C: 55 % of control
endpoint: mean tumor weight, dose: 120.0 mg/kg/injection, schedule: Q01DX011 (ip), vehicle: saline, higher = larger tumour
  T/C: 59 % of control

## COc1cccc(/C=N\NC(=O)C(C)SC(C)C(=O)N/N=C/c2cccc(OC)c2)c1 (stereo unspecified)
endpoint: mean tumor weight, dose: 25.0 mg/kg/injection, schedule: Q01DX011 (ip), vehicle: carboxymethylcellulose (CMC), higher = larger tumour
  T/C: 82 % of control
endpoint: mean tumor weight, dose: 50.0 mg/kg/injection, schedule: Q01DX011 (ip), vehicle: carboxymethylcellulose (CMC), higher = larger tumour
  T/C: 113 % of control
endpoint: mean tumor weight, dose: 100.0 mg/kg/injection, schedule: Q01DX011 (ip), vehicle: carboxymethylcellulose (CMC), higher = larger tumour
  T/C: 67 % of control
endpoint: mean tumor weight, dose: 200.0 mg/kg/injection, schedule: Q01DX011 (ip), vehicle: carboxymethylcellulose (CMC), higher = larger tumour
  T/C: 101 % of control
endpoint: mean tumor weight, dose: 400.0 mg/kg/injection, schedule: Q01DX011 (ip), vehicle: carboxymethylcellulose (CMC), higher = larger tumour
  T/C: 99 % of control
endpoint: mean tumor weight, dose: 600.0 mg/kg/injection, schedule: Q01DX011 (ip), vehicle: carboxymethylcellulose (CMC), higher = larger tumour
  T/C: 85 % of control

## CCC[CH2][Sn]1([CH2]CCC)[O]OC(c2ccc(C)cc2)[O]1 (stereo unspecified)
endpoint: median survival time, dose: 0.19 mg/kg/injection, schedule: Q01DX009 (ip), vehicle: saline with Tween-80, higher = longer survival
  T/C: 98 % of control
endpoint: median survival time, dose: 0.75 mg/kg/injection, schedule: Q01DX009 (ip), vehicle: saline with Tween-80, higher = longer survival
  T/C: 107 % of control
endpoint: median survival time, dose: 1.5 mg/kg/injection, schedule: Q01DX009 (ip), vehicle: saline with Tween-80, higher = longer survival
  T/C: 98 % of control
endpoint: median survival time, dose: 3.0 mg/kg/injection, schedule: Q01DX009 (ip), vehicle: saline with Tween-80, higher = longer survival
  T/C: 119 % of control
endpoint: median survival time, dose: 3.13 mg/kg/injection, schedule: Q01DX009 (ip), vehicle: saline with Tween-80, higher = longer survival
  T/C: 121 % of control

## Cn1cnc([N+](=O)[O-])c1Sc1nc(N)nc2c1ncn2C1OC(CO)C(O)C1O (stereo unspecified)
endpoint: mean tumor weight, dose: 1.0 mg/kg/injection, schedule: Q01DX011 (ip), vehicle: other, higher = larger tumour
  T/C: 76 % of control
endpoint: mean tumor weight, dose: 2.0 mg/kg/injection, schedule: Q01DX011 (ip), vehicle: other, higher = larger tumour
  T/C: 64 % of control
endpoint: mean tumor weight, dose: 4.0 mg/kg/injection, schedule: Q01DX011 (ip), vehicle: other, higher = larger tumour
  T/C: 42 % of control
endpoint: mean tumor weight, dose: 8.0 mg/kg/injection, schedule: Q01DX011 (ip), vehicle: other, higher = larger tumour
  T/C: 18 % of control and 38 % of control
endpoint: mean tumor weight, dose: 16.0 mg/kg/injection, schedule: Q01DX011 (ip), vehicle: other, higher = larger tumour
  T/C: 37 % of control

## Cc1nnc(NS(=O)(=O)c2ccc(N=Nc3nc4[nH]c(N)nc(=S)c4[nH]3)cc2)s1
endpoint: median survival time, dose: 25.0 mg/kg/injection, schedule: Q01DX009 (ip), vehicle: saline, higher = longer survival
  T/C: 109 % of control
[2]
  T/C: 106 % of control
[3]
  T/C: 98 % of control
[4]
  T/C: 98 % of control

## CC(C)C[CH2][Pb]([Cl])([CH2]CC(C)C)[CH2]CC(C)C
endpoint: median survival time, dose: 0.25 mg/kg/injection, schedule: Q01DX009 (ip), vehicle: Klucel (hydroxypropylcellulose) (HPC), higher = longer survival
  T/C: 112 % of control
endpoint: median survival time, dose: 0.5 mg/kg/injection, schedule: Q01DX009 (ip), vehicle: Klucel (hydroxypropylcellulose) (HPC), higher = longer survival
  T/C: 102 % of control
endpoint: median survival time, dose: 1.0 mg/kg/injection, schedule: Q01DX009 (ip), vehicle: Klucel (hydroxypropylcellulose) (HPC), higher = longer survival
  T/C: 93 % of control

## NC(=S)N/N=C/c1ncccc1O
[5]
  T/C: 99 % of control
[6]
  T/C: 86 % of control
endpoint: mean tumor weight, dose: 25.0 mg/kg/injection, schedule: Q01DX011 (ip), vehicle: saline, higher = larger tumour
  T/C: 61 % of control
[7]
  T/C: 31 % of control
endpoint: mean tumor weight, dose: 100.0 mg/kg/injection, schedule: Q01DX011 (ip), vehicle: saline, higher = larger tumour
  T/C: 1 % of control

## O=c1[nH]cc(N(CCCl)CCCl)c(=O)[nH]1
endpoint: mean tumor weight, dose: 0.37 mg/kg/injection, schedule: Q01DX011 (ip), vehicle: carboxymethylcellulose (CMC), higher = larger tumour
  T/C: 70 % of control
endpoint: mean tumor weight, dose: 0.57 mg/kg/injection, schedule: Q01DX011 (ip), vehicle: carboxymethylcellulose (CMC), higher = larger tumour
  T/C: 59 % of control
endpoint: mean tumor weight, dose: 0.85 mg/kg/injection, schedule: Q01DX011 (ip), vehicle: carboxymethylcellulose (CMC), higher = larger tumour
  T/C: 38 % of control

## C[CH2][Pb]([CH2]C)([CH2]C)[O]C(=O)COC
endpoint: median survival time, dose: 1.56 mg/kg/injection, schedule: Q01DX009 (ip), vehicle: Klucel (hydroxypropylcellulose) (HPC), higher = longer survival
  T/C: 92 % of control
endpoint: median survival time, dose: 3.13 mg/kg/injection, schedule: Q01DX009 (ip), vehicle: Klucel (hydroxypropylcellulose) (HPC), higher = longer survival
  T/C: 96 % of control

## OCC1OC(Oc2ccc(O)cc2)C(O)C(O)C1O (stereo unspecified)
[2]
  T/C: 95 % of control
[3]
  T/C: 106 % of control
[4]
  T/C: 92 % of control
endpoint: median survival time, dose: 400.0 mg/kg/injection, schedule: Q01DX009 (ip), vehicle: saline, higher = longer survival
  T/C: 106 % of control

## CCCCCC(=O)O[C@]1(C(C)=O)CC[C@H]2[C@@H]3CCC4=CC(=O)CC[C@]4(C)[C@H]3CC[C@@]21C
endpoint: mean tumor weight, dose: 375.0 mg/kg/injection, schedule: Q01DX011 (sc), vehicle: steriod suspending solution, higher = larger tumour
  T/C: 89 % of control and 99 % of control
endpoint: mean tumor weight, dose: 750.0 mg/kg/injection, schedule: Q01DX011 (sc), vehicle: steriod suspending solution, higher = larger tumour
  T/C: 91 % of control and 92 % of control

## CC(=O)CC(C)(C)N
[1]
  T/C: 118 % of control
endpoint: mean tumor weight, dose: 33.0 mg/kg/injection, schedule: Q01DX011 (ip), vehicle: saline, higher = larger tumour
  T/C: 101 % of control
endpoint: mean tumor weight, dose: 50.0 mg/kg/injection, schedule: Q01DX011 (ip), vehicle: methylcellulose (MC), higher = larger tumour
  T/C: 50 % of control
[7]
  T/C: 120 % of control
endpoint: mean tumor weight, dose: 75.0 mg/kg/injection, schedule: Q01DX011 (ip), vehicle: methylcellulose (MC), higher = larger tumour
  T/C: 91 % of control
endpoint: mean tumor weight, dose: 100.0 mg/kg/injection, schedule: Q01DX011 (ip), vehicle: methylcellulose (MC), higher = larger tumour
  T/C: 30 % of control

## C=C(C)C(=O)O[C@H]1[C@H]2[C@H](OC(=O)[C@H]2C)[C@H](O)[C@@H](C)[C@@H]2C=CC(=O)[C@]21C
endpoint: median survival time, dose: 15.0 mg/kg/injection, schedule: Q01DX009 (ip), vehicle: saline, higher = longer survival
  T/C: 113 % of control
endpoint: median survival time, dose: 30.0 mg/kg/injection, schedule: Q01DX009 (ip), vehicle: saline, higher = longer survival
  T/C: 104 % of control

## C1=Cc2ccccc2CC1
endpoint: mean tumor weight, dose: 133.0 mg/kg/injection, schedule: Q01DX011 (ip), vehicle: other, higher = larger tumour
  T/C: 121 % of control
endpoint: mean tumor weight, dose: 200.0 mg/kg/injection, schedule: Q01DX011 (ip), vehicle: other, higher = larger tumour
  T/C: 46 % of control
endpoint: mean tumor weight, dose: 300.0 mg/kg/injection, schedule: Q01DX011 (ip), vehicle: other, higher = larger tumour
  T/C: 45 % of control

## O=NN(CCCl)C(=O)NC1CS(=O)(=O)CS(=O)(=O)C1
endpoint: median survival time, dose: 5.3 mg/kg/injection, schedule: Q04DX004 (ip), vehicle: saline with Tween-80, higher = longer survival
  T/C: 82 % of control
endpoint: median survival time, dose: 8.0 mg/kg/injection, schedule: Q04DX004 (ip), vehicle: saline with Tween-80, higher = longer survival
  T/C: 151 % of control
endpoint: median survival time, dose: 12.0 mg/kg/injection, schedule: Q04DX004 (ip), vehicle: saline with Tween-80, higher = longer survival
  T/C: 99 % of control
endpoint: median survival time, dose: 18.0 mg/kg/injection, schedule: Q04DX004 (ip), vehicle: saline with Tween-80, higher = longer survival
  T/C: 118 % of control

## S=C([S][Sn]([c]1ccccc1)([c]1ccccc1)[c]1ccccc1)N1CCCCC1
endpoint: median survival time, dose: 3.12 mg/kg/injection, schedule: Q01DX009 (ip), vehicle: saline with Tween-80, higher = longer survival
  T/C: 102 % of control
[8]
  T/C: 94 % of control
endpoint: median survival time, dose: 25.0 mg/kg/injection, schedule: Q01DX009 (ip), vehicle: saline with Tween-80, higher = longer survival
  T/C: 89 % of control

## C[C@@H](N)[C@@H](O)c1ccccc1
endpoint: mean tumor weight, dose: 3.13 mg/kg/injection, schedule: Q01DX011 (ip), vehicle: saline, higher = larger tumour
  T/C: 91 % of control
[5]
  T/C: 67 % of control
[6]
  T/C: 45 % of control

## O=NN(CCCl)C(=O)NC1CCCC1
endpoint: median tumor weight (est.), dose: 33.0 mg/kg/injection, schedule: Q01DX001 (ip), vehicle: saline, higher = larger tumour
  T/C: 62 % of control
endpoint: median tumor weight (est.), dose: 67.0 mg/kg/injection, schedule: Q01DX001 (ip), vehicle: saline, higher = larger tumour
  T/C: 76 % of control
endpoint: median tumor weight (est.), dose: 100.0 mg/kg/injection, schedule: Q01DX001 (ip), vehicle: saline, higher = larger tumour
  T/C: 56 % of control

## C=C1c2[nH]c3ccccc3c2CN2CCC1/C(=C/C)C2 (stereo unspecified)
endpoint: mean tumor weight, dose: 0.5 mg/kg/injection, schedule: Q01DX011 (ip), vehicle: saline, higher = larger tumour
  T/C: 104 % of control
endpoint: mean tumor weight, dose: 1.0 mg/kg/injection, schedule: Q01DX011 (ip), vehicle: saline, higher = larger tumour
  T/C: 74 % of control
endpoint: mean tumor weight, dose: 2.0 mg/kg/injection, schedule: Q01DX011 (ip), vehicle: saline, higher = larger tumour
  T/C: 102 % of control

## Cc1ccccc1Cc1ccccc1
endpoint: mean tumor weight, dose: 78.0 mg/kg/injection, schedule: Q01DX011 (ip), vehicle: saline, higher = larger tumour
  T/C: 121 % of control
endpoint: mean tumor weight, dose: 117.0 mg/kg/injection, schedule: Q01DX011 (ip), vehicle: saline, higher = larger tumour
  T/C: 111 % of control
endpoint: mean tumor weight, dose: 175.0 mg/kg/injection, schedule: Q01DX011 (ip), vehicle: saline, higher = larger tumour
  T/C: 85 % of control
endpoint: mean tumor weight, dose: 263.0 mg/kg/injection, schedule: Q01DX011 (ip), vehicle: saline, higher = larger tumour
  T/C: 103 % of control

## CC/C(C)=C1\OC(=O)C(C)C(O)C(Cc2cccnc2)NC(=O)C(NC(=O)c2ncccc2O)C(C)OC1=O (stereo unspecified)
endpoint: median survival time, dose: 6.25 mg/kg/injection, schedule: Q01DX009 (ip), vehicle: saline with Tween-80, higher = longer survival
  T/C: 92 % of control
[8]
  T/C: 98 % of control
